In the CheMixHub viscosity set:
Values joined by “and” are separate entries in the source; they are usually repeats but may differ in a detail not shown here. Equal entries are not always repeated. ± gives the uncertainty stated by the source.

Experiment: xn = mol fraction of the nth substance listed

COCCO + O
viscosity
Details | 101 kPa | 101.33 kPa
298.15 K, x1 = 0.01 | 0.9988 ± 0.021 mPa·s | –
298.15 K, x1 = 0.025 | 1.169 ± 0.025 mPa·s | –
298.15 K, x1 = 0.05 | 1.464 ± 0.031 mPa·s | –
298.15 K, x1 = 0.056 | 1.516 ± 0.038 mPa·s | –
298.15 K, x1 = 0.075 | 1.755 ± 0.037 mPa·s | –
298.15 K, x1 = 0.0834 | – | 1.894 ± 0.011 mPa·s
298.15 K, x1 = 0.1 | 2.023 ± 0.043 mPa·s | –
298.15 K, x1 = 0.136 | 2.365 ± 0.055 mPa·s | –
298.15 K, x1 = 0.1366 | – | 2.365 ± 0.014 mPa·s
298.15 K, x1 = 0.15 | 2.475 ± 0.052 mPa·s | 2.442 ± 0.014 mPa·s
298.15 K, x1 = 0.2 | 2.766 ± 0.059 mPa·s | –
298.15 K, x1 = 0.2131 | – | 2.768 ± 0.016 mPa·s
298.15 K, x1 = 0.25 | 2.908 ± 0.062 mPa·s and 2.871 ± 0.18 mPa·s and 2.871 ± 0.022 mPa·s | –
298.15 K, x1 = 0.2601 | – | 2.876 ± 0.016 mPa·s
298.15 K, x1 = 0.262 | 2.885 ± 0.061 mPa·s | –
298.15 K, x1 = 0.3 | 2.942 ± 0.063 mPa·s | –
298.15 K, x1 = 0.3005 | – | 2.904 ± 0.017 mPa·s
298.15 K, x1 = 0.3558 | – | 2.886 ± 0.016 mPa·s
298.15 K, x1 = 0.4 | 2.833 ± 0.06 mPa·s | –
298.15 K, x1 = 0.4352 | – | 2.751 ± 0.016 mPa·s
298.15 K, x1 = 0.48 | 2.582 ± 0.16 mPa·s and 2.582 ± 0.019 mPa·s | –
298.15 K, x1 = 0.486 | 2.575 ± 0.044 mPa·s | –
298.15 K, x1 = 0.5 | 2.606 ± 0.055 mPa·s | –
298.15 K, x1 = 0.5001 | – | 2.616 ± 0.015 mPa·s
298.15 K, x1 = 0.5219 | – | 2.571 ± 0.015 mPa·s
298.15 K, x1 = 0.6 | 2.35 ± 0.05 mPa·s | –
298.15 K, x1 = 0.6161 | – | 2.367 ± 0.014 mPa·s
298.15 K, x1 = 0.6806 | – | 2.232 ± 0.013 mPa·s
298.15 K, x1 = 0.7 | 2.102 ± 0.044 mPa·s | –
298.15 K, x1 = 0.72 | 2.115 ± 0.13 mPa·s and 2.115 ± 0.017 mPa·s | –
298.15 K, x1 = 0.7514 | – | 2.076 ± 0.013 mPa·s
298.15 K, x1 = 0.8 | 1.874 ± 0.04 mPa·s | –
298.15 K, x1 = 0.8181 | – | 1.93 ± 0.012 mPa·s
298.15 K, x1 = 0.85 | 1.772 ± 0.037 mPa·s | –
298.15 K, x1 = 0.8844 | – | 1.786 ± 0.011 mPa·s
298.15 K, x1 = 0.9 | 1.681 ± 0.036 mPa·s | –
298.15 K, x1 = 0.95 | 1.606 ± 0.034 mPa·s | –
298.15 K, x2 = 0.1049 | – | 1.671 ± 0.02 mPa·s
298.15 K, x2 = 0.2062 | – | 1.86 ± 0.022 mPa·s
298.15 K, x2 = 0.3055 | – | 2.064 ± 0.024 mPa·s
298.15 K, x2 = 0.3977 | – | 2.288 ± 0.027 mPa·s
298.15 K, x2 = 0.4976 | – | 2.538 ± 0.029 mPa·s
298.15 K, x2 = 0.6002 | – | 2.755 ± 0.031 mPa·s
298.15 K, x2 = 0.6964 | – | 2.866 ± 0.033 mPa·s
298.15 K, x2 = 0.8004 | – | 2.68 ± 0.03 mPa·s
298.15 K, x2 = 0.9005 | – | 1.989 ± 0.023 mPa·s
308.15 K, x1 = 0.0461 | – | 1.143 ± 0.009 mPa·s
308.15 K, x1 = 0.0623 | – | 1.242 ± 0.008 mPa·s
308.15 K, x1 = 0.0881 | – | 1.52 ± 0.011 mPa·s
308.15 K, x1 = 0.1239 | – | 1.829 ± 0.013 mPa·s
308.15 K, x1 = 0.16 | – | 1.803 ± 0.011 mPa·s
308.15 K, x1 = 0.1871 | – | 2.124 ± 0.016 mPa·s
308.15 K, x1 = 0.2131 | – | 2.067 ± 0.012 mPa·s
308.15 K, x1 = 0.2442 | – | 2.284 ± 0.017 mPa·s
308.15 K, x1 = 0.25 | 2.142 ± 0.13 mPa·s and 2.142 ± 0.019 mPa·s | –
308.15 K, x1 = 0.2601 | – | 2.149 ± 0.012 mPa·s
308.15 K, x1 = 0.2938 | – | 2.341 ± 0.018 mPa·s
308.15 K, x1 = 0.3005 | – | 2.164 ± 0.013 mPa·s
308.15 K, x1 = 0.326 | – | 2.342 ± 0.018 mPa·s
308.15 K, x1 = 0.3558 | – | 2.15 ± 0.013 mPa·s
308.15 K, x1 = 0.3709 | – | 2.319 ± 0.017 mPa·s
308.15 K, x1 = 0.4014 | – | 2.284 ± 0.017 mPa·s
308.15 K, x1 = 0.4352 | – | 2.077 ± 0.012 mPa·s
308.15 K, x1 = 0.4504 | – | 2.217 ± 0.017 mPa·s
308.15 K, x1 = 0.5001 | – | 2.001 ± 0.012 mPa·s
308.15 K, x1 = 0.5219 | – | 1.96 ± 0.012 mPa·s
308.15 K, x1 = 0.6161 | – | 1.818 ± 0.011 mPa·s
308.15 K, x1 = 0.6806 | – | 1.726 ± 0.011 mPa·s
308.15 K, x1 = 0.72 | 1.68 ± 0.11 mPa·s and 1.68 ± 0.014 mPa·s | –
308.15 K, x1 = 0.7514 | – | 1.624 ± 0.01 mPa·s
308.15 K, x1 = 0.8844 | – | 1.443 ± 0.009 mPa·s
308.15 K, x2 = 0.1034 | – | 1.452 ± 0.069 mPa·s
308.15 K, x2 = 0.1923 | – | 1.477 ± 0.07 mPa·s
308.15 K, x2 = 0.2978 | – | 1.629 ± 0.077 mPa·s
308.15 K, x2 = 0.3944 | – | 1.768 ± 0.083 mPa·s
308.15 K, x2 = 0.5527 | – | 1.918 ± 0.089 mPa·s
308.15 K, x2 = 0.7415 | – | 2.002 ± 0.093 mPa·s
308.15 K, x2 = 0.8372 | – | 1.768 ± 0.083 mPa·s
308.15 K, x2 = 0.956 | – | 1.085 ± 0.054 mPa·s
313.15 K, x1 = 0.25 | 1.842 ± 0.11 mPa·s and 1.842 ± 0.016 mPa·s | –
313.15 K, x1 = 0.48 | 1.805 ± 0.11 mPa·s and 1.805 ± 0.014 mPa·s | –
313.15 K, x1 = 0.72 | 1.517 ± 0.095 mPa·s and 1.517 ± 0.012 mPa·s | –
318.15 K, x1 = 0.0251 | – | 0.737 ± 0.005 mPa·s
318.15 K, x1 = 0.0623 | – | 0.95 ± 0.006 mPa·s
318.15 K, x1 = 0.15 | – | 1.325 ± 0.008 mPa·s
318.15 K, x1 = 0.2131 | – | 1.505 ± 0.009 mPa·s
318.15 K, x1 = 0.25 | 1.588 ± 0.096 mPa·s and 1.588 ± 0.013 mPa·s | –
318.15 K, x1 = 0.2601 | – | 1.585 ± 0.009 mPa·s
318.15 K, x1 = 0.3005 | – | 1.626 ± 0.01 mPa·s
318.15 K, x1 = 0.3558 | – | 1.655 ± 0.01 mPa·s
318.15 K, x1 = 0.4352 | – | 1.653 ± 0.01 mPa·s
318.15 K, x1 = 0.48 | 1.627 ± 0.099 mPa·s and 1.627 ± 0.012 mPa·s | –
318.15 K, x1 = 0.5001 | – | 1.615 ± 0.01 mPa·s
318.15 K, x1 = 0.5219 | – | 1.602 ± 0.01 mPa·s
318.15 K, x1 = 0.6161 | – | 1.513 ± 0.009 mPa·s
318.15 K, x1 = 0.6806 | – | 1.444 ± 0.009 mPa·s
318.15 K, x1 = 0.72 | 1.389 ± 0.087 mPa·s and 1.389 ± 0.011 mPa·s | –
318.15 K, x1 = 0.7514 | – | 1.36 ± 0.009 mPa·s
318.15 K, x1 = 0.8181 | – | 1.281 ± 0.008 mPa·s
318.15 K, x1 = 0.8844 | – | 1.191 ± 0.008 mPa·s
323.15 K, x1 = 0.48 | 1.493 ± 0.091 mPa·s and 1.493 ± 0.014 mPa·s | –
323.15 K, x1 = 0.72 | 1.294 ± 0.081 mPa·s and 1.294 ± 0.0099 mPa·s | –
